Values quoted from earlier work, collected in paper PMC10125900 (The Journal of General Physiology, 2023).

How the values were obtained:
GluN3A ABD = conditions: ref Furukawa and Gouaux, 2003; Yao and Mayer, 2006
GluN1/2A–D receptors = conditions: read-out: glycine potency at GluN1, EC50; ref Hansen et al., 2021
GluN1^FA+TL/3A = conditions: read-out: glycine potency at GluN3A, EC50; ref Kvist et al., 2013a

EC50 (GluN1/2A–D receptors): 0.1 to 1 µM
EC50 (GluN1^FA+TL/3A): 60 µM
Compound: NCC(=O)O [glycine]
higher affinity for isolated GluN3A ABD compared to isolated GluN1 ABD (GluN3A ABD): 650 fold
